Patent publication US20260021055A1, “Asymmetric Piperazine-Based Cationic Lipids” (TRANSLATE BIO, INC., priority 2022, published 2026)

System: hEPO protein produced in the serum
Experiment: Delivery of human erythropoietin (hEPO) mRNA by intramuscular administration; hEPO protein in serum by ELISA
Assay type: in vivo, Mice
Details: for in vivo protein production (hEPO protein) after delivery of hEPO mRNA: lipid nanoparticles comprising the compound, FIG. 1; for effectiveness in delivering hEPO mRNA compared with control cationic lipid: mice, intramuscular, lipid nanoparticles comprising the lipid, FIG. 1 and Table F
Protocol: For the hEPO animal dosing studies, the lipid nanoparticles (LNPs) are diluted to […] in 10% trehalose. Mice are dosed intramuscularly (IM) with 0.1 μg in 30 μL volume into right gastrocnemius muscle on the leg of the mouse. Blood samples are collected 6 hours and 24 hours post injection to measure the amount of hEPO protein produced in the serum. The hEPO protein amounts are detected using an ELISA assay from commercially available kits. Lipid nanoparticle formulations described in Table D above encapsulating hEPO mRNA were prepared by Process A as described above for intramuscular (IM) administration in accordance with the above procedure.

For `CCCCCCCC/C=C\CCCCCCC(O)CN(CCCCSSCCCN1CC(C)N(CCOC(=O)CCCN(CC(O)CCCCCCCCCC)CC(O)CCCCCCCCCC)CC1C)CC(O)CCCCCC/C=C\CCCCCCCC` (stereo not shown) [Compound B1], the “in vivo protein production (hEPO protein) after delivery of hEPO mRNA” value was “high levels of in vivo protein production” and the “effectiveness in delivering hEPO mRNA compared with control cationic lipid” value was “more effective in delivering hEPO mRNA than the control cationic lipid DLin-MC3-DMA”.
With `CCCCCCCC/C=C\CCCCCCC(O)CN(CCCCSSCCCCN1CC(C)N(CCOC(=O)CCCN(CC(O)CCCCCCCCCC)CC(O)CCCCCCCCCC)CC1C)CC(O)CCCCCC/C=C\CCCCCCCC` (stereo not shown) [Compound C1] the “in vivo protein production (hEPO protein) after delivery of hEPO mRNA” value was “high levels of in vivo protein production” and the “effectiveness in delivering hEPO mRNA compared with control cationic lipid” value was “more effective in delivering hEPO mRNA than the control cationic lipid DLin-MC3-DMA”.
